Measurements: patent publication US20080255186A1, “Pyrazolo[3,4-B]Pyridine Compound, and Its Use as a Pde4 Inhibitor” (priority 2005, published 2008)

Biological target: PDE4D (human recombinant) (Homo sapiens, UniProt Q08499)
Test: PDE4D inhibition, IMAP Fluorescence Polarisation (FP) assay
Format: biochemical
Conditions: mean of n = 3 readings; accurate to about ±0.5 log unit; read-out: PDE4D pIC50 (± about 0.5) (FP assay), Mean pIC50 value (converted)
Description: Human recombinant PDE4D (HSPDE4D3A) is disclosed in P. A. Baecker et al., “Isolation of a cDNA encoding a human rolipram-sensitive cyclic AMP phoshodiesterase (PDE IVD)”, Gene, 1994, 138, 253-256.
The ability of compounds to inhibit catalytic activity at PDE4B (human recombinant) or PDE4D (human recombinant) can optionally be determined by IMAP Fluorescence Polarisation (FP) assay (IMAP Explorer kit, available from Molecular Devices Corporation, Sunnydale, Calif., USA; Molecular Devices code: R8062) in 384-well format.
The IMAP FP assay is able to measure PDE activity in an homogenous, non-radioactive assay format. […] Binding of Fl-AMP product to the beads (coated with the immobilised trivalent cations) slows the rotation of the bound Fl-AMP and leads to an increase in the fluorescence polarisation ratio of parallel to perpendicular light. […]
Test compounds (small volume, e.g. ca. 0.5 to 1 microlitres (ul), suitably ca. 0.5 ul, of solution in DMSO) are preincubated at ambient temperature (room temperature, e.g. 19-23° C.) in black 384-well microtitre plates (supplier: NUNC, code 262260) with PDE enzyme in 10 mM Tris-HCl buffer pH 7.2, 1 mM MgCl2, 0.1% (w/v) bovine serum albumin, and 0.05% NaN3 for 10-30 minutes. […] The Fluorescence Polarisation (FP) ratio of parallel to perpendicular light is measured using an Analyst™ plate reader (from Molecular Devices Corporation). […]

Chain of PDE4D (human recombinant) (Q08499 1-673 isoform Q08499-2): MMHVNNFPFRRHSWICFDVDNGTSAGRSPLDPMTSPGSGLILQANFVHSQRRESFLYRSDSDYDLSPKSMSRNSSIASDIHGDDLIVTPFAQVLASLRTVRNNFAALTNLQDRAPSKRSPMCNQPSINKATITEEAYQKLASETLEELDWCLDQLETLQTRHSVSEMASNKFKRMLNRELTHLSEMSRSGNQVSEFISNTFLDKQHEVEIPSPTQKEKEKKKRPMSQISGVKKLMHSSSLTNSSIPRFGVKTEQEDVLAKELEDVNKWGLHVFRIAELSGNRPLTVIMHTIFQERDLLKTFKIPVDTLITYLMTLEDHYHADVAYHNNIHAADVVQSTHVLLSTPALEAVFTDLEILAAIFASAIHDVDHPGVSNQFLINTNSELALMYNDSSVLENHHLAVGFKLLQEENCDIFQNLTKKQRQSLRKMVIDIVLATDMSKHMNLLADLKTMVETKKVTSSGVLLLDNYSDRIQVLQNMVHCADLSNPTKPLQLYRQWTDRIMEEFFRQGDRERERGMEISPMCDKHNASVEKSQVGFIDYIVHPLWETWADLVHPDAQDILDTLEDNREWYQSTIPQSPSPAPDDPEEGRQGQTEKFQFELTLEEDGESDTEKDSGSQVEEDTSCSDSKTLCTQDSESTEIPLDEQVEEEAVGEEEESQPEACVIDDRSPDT

IC50: ~0.1 nM
Structure (SMILES): CCc1nc2c(cnn2CC)c(NC2CCOCC2)c1CNC(=O)c1cc(C)no1 [Example 1, N-{[1,6-diethyl-4-(tetrahydro-2H-pyran-4-ylamino)-1H-pyrazolo[3,4-b]pyridin-5-yl]methyl}-3-methyl-5-isoxazolecarboxamide]
